# Key:
# DCAF15/RBM39 = DCAF15/RBM39 (Homo sapiens, UniProt Q14498+Q66K64); test: AlphaLISA compound-induced DCAF15-RBM39 ternary complex formation; format: binding; conditions: His-tagged DCAF15 complex and biotin-carrying RBM39
# Protocol: Example 6: Quantitative Evaluation of Compound-Induced Ternary Complex Formation Using Amplified Luminescent Proximity Homogeneous Assay
# Compound-induced DCAF15-RBM39 ternary complex formation was monitored using AlphaLISA® assays (Perkin Elmer, Waltham, MA). Test compounds were first collected in a 384-well microplate (cat. #781280, Grenier Bio-One, Monroe, NC) as 2 mM stocks in 100% dimethyl sulfoxide (DMSO). These stocks were then serially diluted in DMSO by 3-fold into a new plate (cat. #781280, Grenier Bio-One, Monroe, NC) using a Mosquito HTS dispenser (mosquito@ HTS, SPT Labtech, Boston, MA). 0.2 ul of these diluted stocks were then dispensed into a 384-well Optiplate (cat. #6007290, Perkin Elmer, Waltham, MA) in duplicate wells, to assemble the final assay plate consisting of duplicated dose ranges. Separately, a protein mixture consisting of His-tagged DCAF15 complex and biotin-carrying RBM39, each at 408 nM (2.04×), was prepared in 50 mM HEPES, pH 7.5, 100 mM NaCl, 2 mM MgCl2, 0.1% BSA, 2 mM TCEP, 0.05% Tween-20 (dilution buffer). 9.8 ul of this protein mixture was then mixed with the compounds in the assay plate and incubated for one hour at room temperature. Reaction mixtures with no compounds added were included as negative controls, while a His-tagged and biotinylated GST protein was included to track general assay performance. Nickel Chelate AlphaLISA Acceptor beads (cat. #AL108M, Perkin Elmer, MA) and AlphaScreen Streptavidin Donor beads (cat. #6760002, Perkin Elmer, Waltham, MA) were prepared separately in the dilution buffer as 4× stocks (80 ug/ml). The beads were then added to the assay plate sequentially with incubation at room temperature for 1-2 hours after each addition. Signals were recorded using EnVision 2104 Multilabel Plate Reader (Perkin Elmer, Waltham, MA) and titration curves were generated in GraphPad Prism (7.00, GraphPad, La Jolla, CA).
# DCAF15 = DCAF15 (Homo sapiens, UniProt Q66K64); test: HTRF competition assay, binary interaction between compounds and DCAF15; format: binding; conditions: competition with Alexa Fluor 647 tracer, His-tagged DCAF15 complex
# Protocol: Example 7: Measurement of Binary Interaction Between Compounds And DCAF15 Using Homogeneous Time Resolved Fluorescence (HTRF)
# DCAF15 interactions with test compounds were monitored using HTRF competition assays (Cisbio, Bedford, MA). Test compounds were first collected in a 384-well microplate (cat. #781280, Grenier Bio-One, Monroe, NC) as 10 mM stocks in 100% dimethyl sulfoxide (DMSO). A second stock plate (cat. #781280, Grenier Bio-One, Monroe, NC) was prepared through 3-fold serial dilution in DMSO of the afore-mentioned stocks using a Mosquito HTS dispenser (mosquito@ HTS, SPT Labtech, Boston, MA). 0.2 ul of these diluted stocks were then dispensed into a 384-well Optiplate (cat. #6007290, Perkin Elmer, Waltham, MA) in duplicate wells, to assemble the assay plate. The tracer molecule containing an Alexa Fluor 647 probe was prepared in 25 mM HEPES pH 7.5, 100 mM NaCl, 0.1 mg/ml BSA, 0.005% Tween 20, 0.5 mM TCEP (dilution buffer) to 612 nM (2.04×). Separately, His-tagged DCAF15 complex was prepared at 32 nM (4×) in the dilution buffer, and mAb Anti-6His-Eu cryptate Gold (cat. #61H12KLA, Cisbio, Bedford, MA) at 4× dilution in the detection buffer (cat. #61 DB9RDF, Cisbio, Bedford, MA). These two solutions were mixed and incubated for 15 min at room temperature. 9.8 ul of the tracer solution and 10 ul of the DCAF15/mAb Anti-6His-Eu cryptate Gold mixture were added sequentially to each well in the assay plate. Reaction mixtures with no DCAF15 added were included as positive controls. The final mixture was incubated for an hour at room temperature and spun down briefly before data collection at 615 nm and 666 nm using En Vision 2104 Multilabel Plate Reader (Perkin Elmer, Bedford, MA). Binding was estimated based on ratiometric analysis and titration curves were generated in GraphPad Prism (7.00, GraphPad, La Jolla, CA).
SMILES,EC50 (DCAF15/RBM39) [µM],IC50 (DCAF15) [µM]
"Nc1ccc(S(=O)(=O)Nc2cnc3c(Cl)cccc3n2)cc1 [CQS, cloroquinoxaline sulfonamide, reference compound]",1 to 10,
NC1CCC(Oc2ccc(S(=O)(=O)Nc3ccc(Cl)c4c(Cl)c[nH]c34)cc2)CC1 (centres unmarked) [Compound 3],< 1,1 to 10
N[C@H]1CC[C@H](Oc2ccc(S(=O)(=O)Nc3ccc(Cl)c4c(Cl)c[nH]c34)cc2)CC1 [Compound 5],< 1,1 to 10
N[C@@H]1CCC[C@@H](Oc2cccc(S(=O)(=O)Nc3ccc(Cl)c4c(Cl)c[nH]c34)c2)C1 [Compound 6],< 1,10 to 100
N[C@@H]1CCC[C@@H](Oc2ccc(S(=O)(=O)Nc3ccc(Cl)c4c(Cl)c[nH]c34)cc2)C1 [Compound 7],< 1,1 to 10
O=C(N[C@@H]1CCC[C@@H](Oc2ccc(S(=O)(=O)Nc3ccc(Cl)c4c(Cl)c[nH]c34)cc2)C1)OCc1ccccc1 [Compound 13],> 100,> 100
NC[C@H]1CC[C@H](Oc2ccc(S(=O)(=O)Nc3ccc(Cl)c4c(Cl)c[nH]c34)cc2)CC1 [Compound 15],1 to 10,1 to 10
O=S(=O)(Nc1ccc(Cl)c2c(Cl)c[nH]c12)c1cccc(O[C@H]2CC[C@H](N3CCOCC3)CC2)c1 [Compound 16],< 1,1 to 10
O=S(=O)(Nc1ccc(Cl)c2c(Cl)c[nH]c12)c1ccc(O[C@H]2CC[C@H](N3CCOCC3)CC2)cc1 [Compound 17],< 1,10 to 100
O=S(=O)(Nc1ccc(Cl)c2c(Cl)c[nH]c12)c1cccc(O[C@H]2CC[C@H](OCc3ccccc3)CC2)c1 [Compound 18],> 100,> 100
O=S(=O)(Nc1ccc(Cl)c2c(Cl)c[nH]c12)c1ccc(O[C@H]2CC[C@H](OCc3ccccc3)CC2)cc1 [Compound 19],> 100,> 100
O=S(=O)(Nc1ccc(Cl)c2c(Cl)c[nH]c12)c1cccc(O[C@@H]2C[C@@H]3C[C@@H]3C2)c1 [Compound 20],1 to 10,> 100
O=S(=O)(Nc1ccc(Cl)c2c(Cl)c[nH]c12)c1ccc(O[C@@H]2C[C@@H]3C[C@@H]3C2)cc1 [Compound 21],1 to 10,> 100
"CC1(Oc2ccc(S(=O)(=O)Nc3ccc(Cl)c4c(Cl)c[nH]c34)cc2)CCNCC1 [Compound 22, N-(3,4-dichloro-1H-indol-7-yl)-4-((4-methylpiperidin-4-yl)oxy)benzenesulfonamide]",< 1,1 to 10
"CC1(Oc2ccc(S(=O)(=O)Nc3ccc(Cl)c4c(Cl)c[nH]c34)cc2)CCN(CCO)CC1 [Compound 23, N-(3,4-dichloro-1H-indol-7-yl)-4-((1-(2-hydroxyethyl)-4-methylpiperidin-4-yl)oxy)benzenesulfonamide]",< 1,1 to 10
"CN1CC2(CC(Oc3ccc(S(=O)(=O)Nc4ccc(Cl)c5c(Cl)c[nH]c45)cc3)C2)C1 [Compound 24, N-(3,4-dichloro-1H-indol-7-yl)-4-((2-methyl-2-azaspiro[3.3]heptan-6-yl)oxy)benzenesulfonamide]",< 1,1 to 10
"O=S(=O)(Nc1ccc(Cl)c2c(Cl)c[nH]c12)c1ccc(OC2CC3(CNC3)C2)cc1 [Compound 25, 4-((2-azaspiro[3.3]heptan-6-yl)oxy)-N-(3,4-dichloro-1H-indol-7-yl)benzenesulfonamide]",< 1,1 to 10
O=S(=O)(Nc1ccc(Cl)c2c(Cl)c[nH]c12)c1cccc(OC2CCC3(CC2)CNC3)c1 [Compound 26],< 1,10 to 100
O=S(=O)(Nc1ccc(Cl)c2c(Cl)c[nH]c12)c1ccc(OC2CCC3(CC2)CNC3)cc1 [Compound 27],1 to 10,1 to 10
O=S(=O)(Nc1ccc(Cl)c2c(Cl)c[nH]c12)c1cccc(OC2CCC3(CCNCC3)CC2)c1 [Compound 32],1 to 10,10 to 100

SMILES,EC50 (DCAF15/RBM39) [µM],IC50 (DCAF15) [µM]
O=S(=O)(Nc1ccc(Cl)c2c(Cl)c[nH]c12)c1ccc(Oc2ccccc2)c(Cl)c1 [Compound 34],1 to 10,> 100
O=S(=O)(Nc1ccc(Cl)c2c(Cl)c[nH]c12)c1ccc(Oc2ccc(Br)cc2)cc1 [Compound 35],10 to 100,> 100
O=S(=O)(Nc1ccc(Cl)c2c(Cl)c[nH]c12)c1ccc(Oc2ccc(F)cc2)cc1 [Compound 36],1 to 10,10 to 100
N#Cc1ccc(Oc2ccc(S(=O)(=O)Nc3ccc(Cl)c4c(Cl)c[nH]c34)cc2)cc1 [Compound 37],1 to 10,> 100
O=S(=O)(Nc1ccc(Cl)c2c(Cl)c[nH]c12)c1ccc(OC(F)F)c(F)c1 [Compound 38],< 1,1 to 10
O=S(=O)(Nc1ccc(Cl)c2c(Cl)c[nH]c12)c1ccc(OCC2COC2)cc1 [Compound 40],< 1,> 100
CN1CC[C@@H](c2ccc(F)cc2)[C@H](COc2cccc(S(=O)(=O)Nc3ccc(Cl)c4c(Cl)c[nH]c34)c2)C1 [Compound 41],< 1,1 to 10
CN1CC[C@@H](c2ccc(F)cc2)[C@H](COc2ccc(S(=O)(=O)Nc3ccc(Cl)c4c(Cl)c[nH]c34)cc2)C1 [Compound 42],1 to 10,1 to 10
CCOc1cc(N2CCC[C@H](COc3cccc(S(=O)(=O)Nc4ccc(Cl)c5c(Cl)c[nH]c45)c3)C2)ncn1 [Compound 43],1 to 10,> 100
CCOc1cc(N2CCC[C@H](COc3ccc(S(=O)(=O)Nc4ccc(Cl)c5c(Cl)c[nH]c45)cc3)C2)ncn1 [Compound 44],1 to 10,> 100
O=S(=O)(Nc1ccc(Cl)c2c(Cl)c[nH]c12)c1cccc(OC[C@@H]2CCCNC2)c1 [Compound 45],< 1,10 to 100
O=S(=O)(Nc1ccc(Cl)c2c(Cl)c[nH]c12)c1ccc(OC[C@@H]2CCCNC2)cc1 [Compound 46],1 to 10,10 to 100
O=S(=O)(Nc1ccc(Cl)c2c(Cl)c[nH]c12)c1cccc(OC[C@H]2[C@@H]3CNC[C@@H]32)c1 [Compound 47],< 1,10 to 100
O=S(=O)(Nc1ccc(Cl)c2c(Cl)c[nH]c12)c1ccc(OC[C@H]2[C@@H]3CNC[C@@H]32)cc1 [Compound 48],< 1,10 to 100
O=C(OCc1ccccc1)N1C[C@@H]2[C@@H](COc3cccc(S(=O)(=O)Nc4ccc(Cl)c5c(Cl)c[nH]c45)c3)[C@@H]2C1 [Compound 49],1 to 10,> 100
O=C(OCc1ccccc1)N1C[C@@H]2[C@@H](COc3ccc(S(=O)(=O)Nc4ccc(Cl)c5c(Cl)c[nH]c45)cc3)[C@@H]2C1 [Compound 50],> 100,> 100
O=S(=O)(Nc1ccc(Cl)c2c(Cl)c[nH]c12)c1cccc(OCc2cccc(OC(F)F)c2)c1 [Compound 53],1 to 10,> 100
O=S(=O)(Nc1ccc(Cl)c2c(Cl)c[nH]c12)c1ccc(OCc2cccc(OC(F)F)c2)cc1 [Compound 54],1 to 10,> 100
"NS(=O)(=O)c1ccc(S(=O)(=O)Nc2cccc3c(Cl)c[nH]c23)cc1 [Indisulam, indisulam, reference compound]",< 1,
"O=C(NS(=O)(=O)c1ccc(Br)s1)c1ccc(Cl)cc1Cl [Tasisulam, tasisulam, reference compound]",1 to 10,

# Source: patent US20240327351A1, “AMIDE AND ETHER SUBSTITUTED N-(1H-INDOL-7-YL)BENZENESULFONAMIDES AND USES THEREOF” (TRIANA BIOMEDICINES, INC., priority 2021, published 2024)
